# From patent US9024038B2 (Purdue Research Foundation, priority 2010, dated 2015)
# Like-named read-outs stand apart in the source and are kept apart here.
# How the values were obtained:
# HIV-1LAI = assay: Antiviral assay in MT-2 human T-lymphoid cells exposed to HIV-1LAI, MTT readout; type: cell-based
# HIV-1 protease = HIV-1 protease (Human immunodeficiency virus type 1 group M subtype B, UniProt P04585); assay: HIV-1 protease enzyme inhibitory assay (protocol of Toth and Marshall); type: biochemical; settings: for fold change in Ki compared to inhibitor 35a: loss of enzyme inhibitory potency vs 35a
# HIV-1ERS104pre (X4) = assay: Antiviral activity in PHA-PBMs, inhibition of p24 Gag protein production, wild-type clinical isolate; type: cell-based
# Excerpt: (§1) Inhibitor 35a was examined for its activity against a panel of multidrug-resistant HIV-1 variants and compared it with that of other clinically available PIs including 1a. […] This inhibitor outperformed the clinically available PIs with high antiviral activity and seems to compare well with 1a, which currently stands as the leading PI for the treatment of drug-resistant HIV infection.
# HIV-1MRD/C (X4) = assay: Antiviral activity in PHA-PBMs, p24 Gag, multidrug resistant clinical isolate; type: cell-based
# Excerpt: as §1
# HIV-1MDR/JSL (R5) = assay: as above; type: cell-based; settings: for EC50: PHA-PBMs, p24 Gag
# Excerpt: as §1
# HIV-1MDR/MM (R5) = assay: as above; type: cell-based
# Excerpt: as §1
# HIV-1MDR/B (X4) = assay: as above; type: cell-based; settings: for EC50: PHA-PBMs, p24 Gag
# Excerpt: as §1
# HIV-1MDR/TM (X4) = assay: as above; type: cell-based
# Excerpt: as §1
# HIV-1MDR/G (X4) = assay: as above; type: cell-based
# Excerpt: as §1
# [1] = Human immunodeficiency virus 1, T-lymphoid, read-out: Antiviral IC50, (nM)
# [2] = Human immunodeficiency virus 1, T-lymphoid
# [3] = Human immunodeficiency virus 1, MT2, MT-2 cells, 100 TCID50s of HIV-1LAI, MTT assay, read-out: IC50
# [4] = Human immunodeficiency virus 1, MT2
smiles,measurement,setting,value
COc1ccc(C[C@H](NC(=O)O[C@H]2CCO[C@H]3OC[C@H](O)[C@H]32)[C@H](O)CN(CC(C)C)S(=O)(=O)c2ccc(OC)cc2)cc1,IC50,HIV-1LAI; [1],< 10 nM
same,Ki,HIV-1 protease,< 0.1 nM
COc1cccc(C[C@H](NC(=O)O[C@H]2CCO[C@H]3OCC[C@H]32)[C@H](O)CN(CC(C)C)S(=O)(=O)c2ccc3nc(NC(C)C)oc3c2)c1,IC50,HIV-1LAI; [1],< 10 nM
same,Ki,HIV-1 protease,< 0.1 nM
COc1ccc(C[C@H](NC(=O)O[C@H]2CCO[C@H]3OCC[C@H]32)[C@H](O)CN(C[C@H]2CCC(=O)N2)S(=O)(=O)c2ccc(N)cc2)cc1 [compound 4],IC50,HIV-1LAI; [2],> 1000 nM
same,Ki,HIV-1 protease,< 10 nM
CC(C)CN(C[C@@H](O)[C@H](Cc1ccccc1)NC(=O)O[C@H]1CCO[C@H]2OCC(O)C21)S(=O)(=O)c1ccc2nc(NC(C)C)sc2c1 (stereo partly drawn),IC50,HIV-1LAI; [1],< 10 nM
same,Ki,HIV-1 protease,< 0.1 nM
COc1cccc(C[C@H](NC(=O)O[C@H]2CCO[C@H]3OCC[C@H]32)[C@H](O)CN(CC(C)C)S(=O)(=O)c2ccc3nc(NC(C)C)sc3c2)c1,IC50,HIV-1LAI; [1],< 1 nM
same,Ki,HIV-1 protease,< 0.1 nM
CC(C)CN(C[C@@H](O)[C@H](Cc1ccccc1)NC(=O)O[C@H]1CCO[C@H]2OCC[C@H]21)S(=O)(=O)c1ccc2nc(NC(C)C)sc2c1,IC50,HIV-1LAI; [1],< 1 nM
same,Ki,HIV-1 protease,< 0.1 nM
CC(C)CN(C[C@@H](O)[C@H](Cc1ccccc1)NC(=O)O[C@H]1CCO[C@H]2OCC[C@H]21)S(=O)(=O)c1ccc2nc(NC(C)C)oc2c1,IC50,"HIV-1LAI; Human immunodeficiency virus 1, T-lymphoid, Examples Table 3, scored, read-out: Antiviral IC50",< 10 nM
"COc1ccc(S(=O)(=O)N(CC(C)C)C[C@@H](O)[C@H](Cc2ccccc2)NC(=O)O[C@H]2CO[C@H]3OCC[C@H]3C2)cc1 [35g, (3aS,5R,7aR)-Hexahydro-2H-furo[2,3-b]pyran-5-yl((2S,3R)-3-hydroxy-4-(N-isobutyl-4-methoxyphenylsulfonamido)-1-phenylbutan-2-yl)carbamate]",protease inhibitory activity,HIV-1 protease,substantial loss of protease inhibitory activity
same,Ki,HIV-1 protease; read-out: Ki,0.11 nM
CC(C)CN(C[C@@H](O)[C@H](Cc1ccccc1)NC(=O)O[C@H]1CO[C@H]2OCC[C@H]21)S(=O)(=O)c1ccc(N)cc1 [drawing 189],IC50,HIV-1LAI; [1],< 10 nM
COc1ccc(C[C@H](NC(=O)O[C@H]2CCO[C@H]3OCC[C@H]32)[C@H](O)CN(CC(C)C)S(=O)(=O)c2ccc(OC)cc2)cc1 [compound 2],IC50,HIV-1LAI; [2],< 1 nM
same,Ki,HIV-1 protease,< 0.1 nM
COc1ccc(C[C@H](NC(=O)O[C@H]2CCO[C@H]3OCC[C@H]32)[C@H](O)CN(C[C@H]2CCC(=O)N2)S(=O)(=O)c2ccc(OC)cc2)cc1 [compound 3],IC50,HIV-1LAI; [2],100 to 1000 nM
same,Ki,HIV-1 protease,< 0.1 nM
"COc1ccc(S(=O)(=O)N(CC(C)C)C[C@@H](O)[C@H](Cc2ccccc2)NC(=O)O[C@H]2CCC[C@H]3OCC[C@@H]23)cc1 [35c, (3aR,4S,7aR)-Octahydrobenzofuran-4-yl(2S,3R)-3-hydroxy-4-(N-isobutyl-4-methoxyphenylsulfonamido)-1-phenylbutan-2-yl carbamate]",IC50,HIV-1LAI; [3],8 nM
same,fold decrease in antiviral activity compared to inhibitor 35a,"HIV-1LAI; MT-2 cells, HIV-1LAI",16 fold
same,fold change in Ki compared to inhibitor 35a,HIV-1 protease,2 fold
same,Ki,HIV-1 protease; read-out: Ki,0.005 nM
COc1ccc(S(=O)(=O)N(CC(C)C)C[C@@H](O)[C@H](Cc2ccccc2)NC(=O)O[C@H]2CCO[C@H]3OC[C@H](OC)[C@H]32)cc1,IC50,HIV-1LAI; [1],< 1 nM
same,Ki,HIV-1 protease,< 0.1 nM
"COc1ccc(S(=O)(=O)N(CC(C)C)C[C@@H](O)[C@H](Cc2ccccc2)NC(=O)O[C@@H]2CCO[C@@H]3OCC[C@@H]32)cc1 [35b, (3aR,4R,7aS)-Hexahydro-2H-furo[2,3-b]pyran-4-yl((2S,3R)-3-hydroxy-4-(N-isobutyl-4-methoxyphenylsulfonamido)-1-phenylbutan-2-yl)carbamate]",IC50,HIV-1LAI; [4],19 nM
same,IC50,"HIV-1LAI; Human immunodeficiency virus 1, MT2, read-out: antiviral activity ID50",19 nM
same,fold change in Ki compared to inhibitor 35a,HIV-1 protease,> 20 fold
same,Ki,HIV-1 protease; read-out: Ki,0.068 nM
"CC(C)CN(C[C@@H](O)[C@H](Cc1ccccc1)NC(=O)O[C@H]1CCOC1)S(=O)(=O)c1ccc(N)cc1 [amprenavir, reference compound]",IC50,HIV-1LAI; [3],30 nM
CC(C)CN(C[C@@H](O)[C@H](Cc1ccccc1)NC(=O)O[C@H]1CCO[C@H]2OCC[C@H]21)S(=O)(=O)c1ccc(CO)cc1 [compound 37],IC50,HIV-1LAI; [4],4.5 nM
same,Ki,HIV-1 protease; read-out: Ki,0.085 nM
COC(=O)N[C@H](C(=O)N[C@@H](Cc1ccccc1)[C@@H](O)CN(Cc1ccc(-c2ccccn2)cc1)NC(=O)[C@@H](NC(=O)OC)C(C)(C)C)C(C)(C)C [ATV],EC50,HIV-1ERS104pre (X4),2.7 ± 0.6 nM
same,EC50,"HIV-1MRD/C (X4); PHA-PBMs, p24 Gag",39 ± 3 nM
same,fold change of EC50 compared to wild-type HIV-1ERS104pre,HIV-1MRD/C (X4); number in parentheses,14 fold
same,EC50,HIV-1MDR/JSL (R5),293 ± 99 nM
same,fold change of EC50 compared to wild-type HIV-1ERS104pre,HIV-1MDR/JSL (R5); number in parentheses,109 fold
same,EC50,"HIV-1MDR/MM (R5); PHA-PBMs, p24 Gag",205 ± 24 nM
same,fold change of EC50 compared to wild-type HIV-1ERS104pre,HIV-1MDR/MM (R5); number in parentheses,76 fold
same,EC50,HIV-1MDR/B (X4),470 ± 7 nM
same,fold change of EC50 compared to wild-type HIV-1ERS104pre,HIV-1MDR/B (X4); number in parentheses,174 fold
same,EC50,"HIV-1MDR/TM (X4); PHA-PBMs, p24 Gag",75 ± 3 nM
same,fold change of EC50 compared to wild-type HIV-1ERS104pre,HIV-1MDR/TM (X4); number in parentheses,28 fold
same,EC50,"HIV-1MDR/G (X4); PHA-PBMs, p24 Gag",19 ± 8 nM
same,fold change of EC50 compared to wild-type HIV-1ERS104pre,HIV-1MDR/G (X4); number in parentheses,7 fold
Cc1cccc(C)c1OCC(=O)N[C@@H](Cc1ccccc1)[C@@H](O)C[C@H](Cc1ccccc1)NC(=O)[C@H](C(C)C)N1CCCNC1=O [LPV],EC50,HIV-1MDR/JSL (R5),> 1000 nM
same,EC50,HIV-1MDR/B (X4),> 1000 nM
COc1ccc(C[C@H](NC(=O)O[C@H]2CCO[C@H]3OCC[C@H]32)[C@H](O)CN(CC(C)C)S(=O)(=O)c2ccc(N)cc2)cc1 [compound 1],IC50,HIV-1LAI; [2],1 to 10 nM
same,Ki,HIV-1 protease,< 1 nM
"CC(C)(C)NC(=O)[C@@H]1C[C@@H]2CCCC[C@@H]2CN1C[C@@H](O)[C@H](Cc1ccccc1)NC(=O)[C@H](CC(N)=O)NC(=O)c1ccc2ccccc2n1 [saquinavir, reference compound]",IC50,HIV-1LAI; [4],15 nM
COc1ccc(S(=O)(=O)N(CC(C)C)C[C@@H](O)[C@H](Cc2ccccc2)NC(=O)O[C@H]2CCO[C@H]3OC[C@H](OCc4ccccc4)[C@H]32)cc1,IC50,HIV-1LAI; [1],< 1 nM
same,Ki,HIV-1 protease,< 1 nM
COc1ccc(C[C@H](NC(=O)O[C@H]2CCO[C@H]3OCC[C@H]32)[C@H](O)CN(CC(C)C)S(=O)(=O)c2ccc3nc(NC(C)C)oc3c2)cc1,IC50,HIV-1LAI; [1],< 10 nM
same,Ki,HIV-1 protease,< 0.1 nM
COc1ccc(S(=O)(=O)N(CC(C)C)C[C@@H](O)[C@H](Cc2ccccc2)NC(=O)O[C@H]2CCC[C@H]3CCC[C@H]32)cc1 [35e],IC50,HIV-1LAI; [4],> 1000 nM
same,antiviral activity,"HIV-1LAI; MT-2 cells, HIV-1LAI",no appreciable antiviral activity
same,Ki,HIV-1 protease; read-out: Ki,9 nM
CC(C)CN(C[C@@H](O)[C@H](Cc1ccccc1)NC(=O)O[C@H]1CCO[C@H]2OCC[C@H]21)S(=O)(=O)c1ccc(N)cc1 [compound 36],IC50,HIV-1LAI; [4],6.5 nM
same,Ki,HIV-1 protease; read-out: Ki,0.01 nM
CCNC1CO[C@@H]2OCC[C@H](OC(=O)N[C@@H](Cc3ccccc3)[C@H](O)CN(CC(C)C)S(=O)(=O)c3ccc4nc(NC(C)C)sc4c3)C12 (stereo partly drawn),IC50,HIV-1LAI; [1],< 10 nM
same,Ki,HIV-1 protease,< 0.1 nM
"COc1ccc(S(=O)(=O)N(CC(C)C)C[C@@H](O)[C@H](Cc2ccccc2)NC(=O)O[C@H]2CCO[C@H]3COC[C@H]32)cc1 [35f, (4S,4aS,7aR)-Hexahydro-2H-furo[3,4-b]pyran-4-yl((2S,3R)-3-hydroxy-4-(N-isobutyl-4-methoxyphenylsulfonamido)-1-phenylbutan-2-yl)carbamate]",IC50,HIV-1LAI; [4],> 1000 nM
same,antiviral activity,"HIV-1LAI; MT-2 cells, HIV-1LAI",no antiviral activity
same,protease inhibitory activity,HIV-1 protease,substantial loss of potency
same,Ki,HIV-1 protease; read-out: Ki,5.3 nM
COc1ccc(S(=O)(=O)N(CC(C)C)C[C@@H](O)[C@H](Cc2ccccc2)NC(=O)O[C@H]2CCO[C@H]3OC[C@H](O)[C@H]32)cc1,IC50,HIV-1LAI; [1],< 10 nM
same,Ki,HIV-1 protease,< 0.1 nM
"COc1ccc(S(=O)(=O)N(CC(C)C)C[C@@H](O)[C@H](Cc2ccccc2)NC(=O)O[C@H]2CCO[C@H]3CCC[C@H]32)cc1 [35d, (4S,4aR,7aS)-Octahydrocyclopenta[b]pyran-4-yl((2S,3R)-3-hydroxy-4-(N-isobutyl-4-methoxyphenylsulfonamido)-1-phenylbutan-2-yl)carbamate]",Ki,HIV-1 protease; read-out: Ki,1.43 nM
